The record followed here is patent US20260209214A1, “LSD1 MODULATORS” (RECURSION PHARMACEUTICALS, INC., priority 2022, published 2026).

For orientation: IC50 means the midpoint of a concentration-inhibition curve.

Bounds are passed on as bounds.

The target of the assay is Recombinant human LSD1 (Homo sapiens, UniProt O60341). Kind of assay: LSD1 inhibition assay (HTRF LSD1 Histone H3K4 mono-demethylation assay, me1->me0). The assay is classed as biochemical. The following applies: 20 nM recombinant human LSD1, 95 nM H3K4(me1) biotinylated peptide, 15 min preincubation, 60 min at 25° C., read-out: LSD1 inhibition IC50 (nM range). In outline: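 Recombinant human LSD1 (20 nM) pre-incubated 15 min with 10 semi-log compound doses, then 95 nM biotinylated H3K4me1 peptide for 60 min at 25 °C in pH 8.5 Tris/NaCl buffer with 10 μM FAD, 1 mM DTT. HTRF me0-antibody read after 90 min; IC50 from 4-parameter fit.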
Background: Time-resolved FRET reads energy transfer from a long-lived donor to a nearby acceptor.

For `C[C@]1(N)CCN(Cc2c(F)ccc(-c3ccc(C#N)c(F)c3)c2Cl)C1` [Example 342, 3'-{[(3S)-3-amino-3-methylpyrrolidin-1-yl]methyl}-2'-chloro-3,4'-difluoro-[1,1'-biphenyl]-4-carbonitrile], the IC50 was in the range of 100 to 1000 nM.

On to `N#Cc1ccc(-c2cc(CN3CC4(CNCCO4)C3)ccc2N2CCCC2)cc1` [Example 343, 5'-({5-oxa-2,8-diazaspiro[3.5]nonan-2-yl}methyl)-2'-(pyrrolidin-1-yl)-[1,1'-biphenyl]-4-carbonitrile], for which the IC50 was above 1000 nM.

Take `N#Cc1ccc(-c2cc(CN3CC4(CNCCO4)C3)ccc2N2CCCC2)cc1F` [Example 344, 3-fluoro-5'-({5-oxa-2,8-diazaspiro[3.5]nonan-2-yl}methyl)-2'-(pyrrolidin-1-yl)-[1,1'-biphenyl]-4-carbonitrile]: the IC50 is above 1000 nM.

Turning to `Cc1cc(CN2C[C@@H]3C[C@H]2CN3C2COC2)c(Cl)c(-c2ccc(C#N)c(F)c2)c1` [Example 345], the half-inhibitory concentration (IC50) is above 1000 nM.

Regarding `Cc1cc(CNCC2CCCN(C)C2)c(Cl)c(-c2ccc(C#N)c(F)c2)c1` (centres unmarked) [Example 346, 2'-chloro-3-fluoro-5'-methyl-3'-({[(1-methylpiperidin-3-yl)methyl]amino}methyl)-[1,1'-biphenyl]-4-carbonitrile], the half-inhibitory concentration (IC50) was in the range of 100 to 1000 nM.

For `Cc1cc(CN2C[C@@H]3[C@@H](N)[C@@H]3C2)c(Cl)c(-c2ccc(C#N)c(F)c2)c1` [Example 347, 3'-{[(1R,5S,6R)-6-amino-3-azabicyclo[3.1.0]hexan-3-yl]methyl}-2'-chloro-3-fluoro-5'-methyl-[1,1'-biphenyl]-4-carbonitrile], the IC50 lay in the range of 100 to 1000 nM.

As for `Cc1cc(CNCC2CCCNC2)c(Cl)c(-c2ccc(C#N)c(F)c2)c1` (centres unmarked) [Example 348, 2'-chloro-3-fluoro-5'-methyl-3'-({[(piperidin-3-yl)methyl]amino}methyl)-[1,1'-biphenyl]-4-carbonitrile], the IC50 was in the range of 100 to 1000 nM.

Regarding `C[C@@]1(N)CCN(Cc2cccc(-c3ccc(C#N)c(F)c3)c2C2CC2)C1` [Example 349, 3'-{[(3R)-3-amino-3-methylpyrrolidin-1-yl]methyl}-2'-cyclopropyl-3-fluoro-[1,1'-biphenyl]-4-carbonitrile], the half-inhibitory concentration (IC50) is 100 to 1000 nM.
